Patent US20040087633A1, “Methylidene oxazolidinone compound and preparation method thereof” (Korea Institute of Science and Technology, priority 2002, published 2004)
Converted amounts (≈) assume the structure as drawn.

Tests used:
Assay in all cases: Anti-microbial activity test in vitro (agar dilution MIC)
[1] = system: E. faecalis ATCC29212; type: cell-based; settings: E. faecalis ATCC29212; Agar Dilution method, Mueller Hinton Agar, 18 hours at 37° C.
Protocol: (§1) Anti-microbial activity test in vitro
(§2) Strains were cultivated for 18 hours at 37° C. in Agar Dilution method using Mueller Hinton Agar, and then plane plates inoculated with the strains by diluting them two times gradually were aligned in a row. Minimum inhibition concentration (MIC, μg/ml) for the representative compounds of the present invention, Linezolid (LZD) and vancomycin (VAN) were decided through visual observation, and the results are shown in the following tables 2 and 3.

[2] = system: S. aureus ATCC 29213; type: cell-based; settings: Agar Dilution method, Mueller Hinton Agar, 18 hours at 37° C.
Protocol: as §1, §2

[3] = system: E. faecalis C6291; type: cell-based; settings: E. faecalis C6291; Agar Dilution method, Mueller Hinton Agar, 18 hours at 37° C.
Protocol: as §1, §2

[4] = system: E. faecium C6301; type: cell-based; settings: E. faecium C6301; Agar Dilution method, Mueller Hinton Agar, 18 hours at 37° C.
Protocol: as §1, §2

[5] = system: S. epidermidis C2235; type: cell-based; settings: S. epidermidis C2235; Agar Dilution method, Mueller Hinton Agar, 18 hours at 37° C.
Protocol: as §1, §2

[6] = system: S. epidermidis C2230; type: cell-based; settings: S. epidermidis C2230; Agar Dilution method, Mueller Hinton Agar, 18 hours at 37° C.
Protocol: as §1, §2

[7] = system: S. pyogenes C6012; type: cell-based; settings: S. pyogenes C6012; Agar Dilution method, Mueller Hinton Agar, 18 hours at 37° C.
Protocol: as §1, §2

[8] = system: S. pyogenes C6003; type: cell-based; settings: S. pyogenes C6003; Agar Dilution method, Mueller Hinton Agar, 18 hours at 37° C.
Protocol: as §1, §2

[9] = system: E. faecalis C6288; type: cell-based; settings: E. faecalis C6288; Agar Dilution method, Mueller Hinton Agar, 18 hours at 37° C.
Protocol: as §1, §2

[10] = system: S. pyogenes ATCC8668; type: cell-based; settings: S. pyogenes ATCC8668; Agar Dilution method, Mueller Hinton Agar, 18 hours at 37° C.
Protocol: as §1, §2

[11] = system: E. faecium C2252; type: cell-based; settings: E. faecium C2252; Agar Dilution method, Mueller Hinton Agar, 18 hours at 37° C.
Protocol: as §1, §2

[12] = system: S. epidermidis ATCC12228; type: cell-based; settings: S. epidermidis ATCC12228; Agar Dilution method, Mueller Hinton Agar, 18 hours at 37° C.
Protocol: as §1, §2

[13] = system: VRE C6488; type: cell-based, Enterococcus faecium; settings: VRE C6488; Agar Dilution method, Mueller Hinton Agar, 18 hours at 37° C.
Protocol: as §1, §2

[14] = system: VRE C6487; type: cell-based, Enterococcus faecium; settings: VRE C6487; Agar Dilution method, Mueller Hinton Agar, 18 hours at 37° C.
Protocol: as §1, §2

[15] = system: MSSA C2214; type: cell-based, Staphylococcus aureus; settings: MSSA C2214; Agar Dilution method, Mueller Hinton Agar, 18 hours at 37° C.
Protocol: as §1, §2

[16] = system: MRSA C5100; type: cell-based, Staphylococcus aureus; settings: MRSA C5100; Agar Dilution method, Mueller Hinton Agar, 18 hours at 37° C.
Protocol: as §1, §2

[17] = system: MSSA C7142; type: cell-based, Staphylococcus aureus; settings: MSSA C7142; Agar Dilution method, Mueller Hinton Agar, 18 hours at 37° C.
Protocol: as §1, §2

[18] = system: CRSA C1062; type: cell-based, Staphylococcus aureus; settings: CRSA C1062; Agar Dilution method, Mueller Hinton Agar, 18 hours at 37° C.
Protocol: as §1, §2

[19] = system: MRSA C6068; type: cell-based, Staphylococcus aureus; settings: MRSA C6068; Agar Dilution method, Mueller Hinton Agar, 18 hours at 37° C.
Protocol: as §1, §2

[20] = system: CRSA C6043; type: cell-based, Staphylococcus aureus; settings: CRSA C6043; Agar Dilution method, Mueller Hinton Agar, 18 hours at 37° C.
Protocol: as §1, §2

[21] = system: MRSA C2207; type: cell-based, Staphylococcus aureus; settings: MRSA C2207; Agar Dilution method, Mueller Hinton Agar, 18 hours at 37° C.
Protocol: as §1, §2

Compound | Minimum inhibition concentration (MIC) [1] [mg/L] | Minimum inhibition concentration (MIC) [2] [mg/L] | Minimum inhibition concentration (MIC) [3] [mg/L] | Minimum inhibition concentration (MIC) [4] [mg/L] | Minimum inhibition concentration (MIC) [5] [mg/L] | Minimum inhibition concentration (MIC) [6] [mg/L] | Minimum inhibition concentration (MIC) [7] [mg/L] | Minimum inhibition concentration (MIC) [8] [mg/L] | Minimum inhibition concentration (MIC) [9] [mg/L] | Minimum inhibition concentration (MIC) [10] [mg/L] | Minimum inhibition concentration (MIC) [11] [mg/L] | Minimum inhibition concentration (MIC) [12] [mg/L] | Minimum inhibition concentration (MIC) [13] [mg/L] | Minimum inhibition concentration (MIC) [14] [mg/L] | Minimum inhibition concentration (MIC) [15] [mg/L] | Minimum inhibition concentration (MIC) [16] [mg/L] | Minimum inhibition concentration (MIC) [17] [mg/L] | Minimum inhibition concentration (MIC) [18] [mg/L] | Minimum inhibition concentration (MIC) [19] [mg/L] | Minimum inhibition concentration (MIC) [20] [mg/L] | also measured
CCOC(=O)C(Cl)=C1CCN(c2ccc(N3C[C@H](CNC(C)=O)OC3=O)cc2F)CC1 [Compound 15, N-[[(5S)-3-[3-fluoro-4-((4-(1-ethoxycarbonyl-1-chloro)-methylidene)piperidinyl)phenyl]-2-oxo-5-oxazolidinyl]methyl]acetamide] | 8 (≈ 17.6 µM) | 32 (≈ 70.5 µM) | 4 (≈ 8.81 µM) | 2 (≈ 4.41 µM) | 4 (≈ 8.81 µM) | 4 (≈ 8.81 µM) | 8 (≈ 17.6 µM) | 2 (≈ 4.41 µM) | 8 (≈ 17.6 µM) | 2 (≈ 4.41 µM) | 4 (≈ 8.81 µM) | 2 (≈ 4.41 µM) | 4 (≈ 8.81 µM) | 2 (≈ 4.41 µM) | 8 (≈ 17.6 µM) | 16 (≈ 35.3 µM) | 8 (≈ 17.6 µM) | 16 (≈ 35.3 µM) | 16 (≈ 35.3 µM) | 16 (≈ 35.3 µM) | Minimum inhibition concentration (MIC) [21]: 16 mg/L (≈ 35.3 µM)
N-[[(5S)-3-[3-fluoro-4-(4-dicyanomethylidenepiperidinyl) phenyl]-2-oxo-5-oxazolidinyl]methyl]acetamide [Compound 6] | 4 | 2 | 4 | 2 | 2 | 2 | 1 | 4 | 4 | 1 | 4 | 1 | 2 | 4 | 4 | 4 | 4 | 4 | 2 | 4 | Minimum inhibition concentration (MIC) [21]: 4 mg/L
